From patent publication US20060198882A1, “Stable liposomes or micelles comprising a sphinolipid and a peg-lipopolymer” (priority 2003, published 2006) come the findings set out here.

A short description of series [1]: Critical aggregation concentration (CAC) by surface tension. In kind it is physicochemical. The settings on record: pure water containing 0.3% ethanol, room temperature. On the procedure:
The critical aggregation concentration (CAC) of the ceramides is the concentration at which aggregation of monomers to an amphiphile assembly occurs. CAC of the C2, C6, and C16 ceramides was determined in filtered pure water containing 0.3% ethanol by measuring at room temperature surface tension as a function of ceramide concentration. The measurements were done using μThrougs Kibron System (Helsinki, Finland) which determine the surface tension at the air/water interface. The measurement at each concentration was repeated until a constant value of surface tension was reached [Zuidam, N. and Barenholz, Y., Supra (1997)]

The subject of series [2] is C-26. Description: Methylene blue assay of cell survival. In kind it is cell-based, human. The text has this:
(§1) Several tumor cell lines in monolayers were used. A human ovarian carcinoma cell line (OV-1063), established at the Hadassah University Hospital, a human colon carcinoma cell line (C-26), a DOX-sensitive M-109S ([…]), and a DOX-resistant, M-109R ([…]). All cell lines were maintained in RPMI-1640 medium supplemented with 10% FCS, antibiotics, and glutamine. All culture medium components were purchased from Biological Industries (Beit-HaEmek, Israel). Both cell lines were maintained at 37° C. in a water-jacketed CO2 incubator.
(§2) a) Various ceramides (Cer) with different chain lengths: short (C2 Cer and C4 Cer), medium (C6 Cer and C8 Cer), and long (C16 Cer) were first dissolved in 100% ethanol to a concentration of 30 mM, added to a serum-containing medium and mixed immediately. The final ethanol concentration in the serum-containing culture medium ranged from 0.1-0.5% (depending on the type of ceramide (Cer)).
(§3) b) Various ceramides with different chain lengths: short C2 Cer, medium C6 Cer, and long C16 Cer were dissolved in ethanol:dodecane (98:2 v/v) to a concentration of 30 mM and added to serum-free medium and mixed. Final concentrations of the ethanol and dodecane in the culture medium containing 10% of FCS ranged from 0.098-0.49% and 0.002-0.01%, respectively, depending on the type of ceramide.
(§4) The cytotoxicity of the examined assemblies comprising ceramide was tested by the methylene blue ([…]) staining assay [Gorodetsky, R. et al. Int. J. Cancer. 75:635-642 (1998)]. A known number of exponentially growing cells in 200 μL of medium were plated in 96-microwell, flat-bottomed plates. For each of the variants tested, 4 wells were used. Following 24 hr of incubation in culture, 20 μL of different concentrations of the examined assemblies were added to each well containing untreated cells.
(§5) The following controls were used: Citrate buffer (5 mM, pH 7); Ethanol solution in medium RPMI 1640 (final concentration of 0.1%); A solution RPMI 1640 of ethanol:dodecane (98:2 […]) at a final concentration of 0.1% and 0.2%, respectively.
(§6) Cells were exposed to assemblies for 4, 24, 72 or 96 hr. At the end of assembly exposure, for a fixed time interval, the drug-treated cells, as well as parallel control cells, were washed, and the incubation continued in fresh medium until termination of the experiment. Following 72 hr or 96 hr of growth, cells were fixed by adding 50 μL of 2.5% glutaraldehyde to each well for 15 min. Fixed cells were rinsed 10 times with deionized water and once with borate buffer (0.1 M, pH 8.5), dried, and stained with MB (100 μL of 1% solution in 0.1 M borate buffer, pH 8.5) for 1 h at room temperature (r.t.). Stained cells were rinsed thoroughly with de-ionized water to remove any non-cell-bound dye and then dried. The MB bound to the fixed cells was extracted by incubation at 37° C. with 200 μL of 0.1 N HCl for 1 h, and the net optical density of the dye in each well was determined by a plate spectrophotometer (Labsystems Multyskan Bichromatic, Finland) at 620 nm.

Series [3] has as its system OV-1063. Description: Methylene blue assay of cell survival. The conditions noted are these: Table 8B. In kind it is cell-based, human.
Source text: as §1, §2, §3, §4, §5, §6

Series [4] in a line: Injection of ceramide dispersions into mice (tolerance, weight). The conditions noted are these: for decrease from initial weight: mouse, in vivo. On the procedure: […] of C2Cer and C6Cer dispersions in ethanol or in ethanol:dodecane (98:2) (required final blood concentration of about 3.3%) were injected to the Balb/c female mice (8 week old).
In addition, 1 μmole/mouse of C2Cer and C6Cer dispersions in ethanol or in ethanol:dodecane (98:2) in isotonic BSA solution (BSA 2 mM, NaCl 112 mM, pH 7.4) was injected in order to reach the final ethanol or ethanol:dodecane blood concentration of about 3.3%. For the preparation of ceramide-BSA complexes the 33 μl of 30 mM stock of C2Cer and C6Cer dispersions were incubated for 30 min at 30° C. with 417 μl of 2 mM BSA solution in order to reach the ceramide/BSA mole ratio of 1/0.8, respectively [Hannun, Supra, 2000].

A short description of series [5]: Partition in the two phases of the Dole system. In kind it is physicochemical.
A short description of series [6]: Conversion of C6Cer in cell derived or fresh medium. The format is in vitro ADME.
For series [7], the system named is caspase-3 activity in OV-1063 tumor cells. Description: EnzChek Caspase-3 assay. The format is cell-based, human. The conditions noted are these: 16 hr, IC50 values. The source says:
Biochemically, apoptosis was verified by the EnzChek™ Caspase-3 Assay Kit (Molecular Probes). This allows the detection of apoptosis by assaying for increases in caspase-3 and other DEVD-specific protease activities (e.g., caspase-7). The basis for the assay is rhodamine 110 bis-(N-CBZ-aspartyl-L-glutamyl-L-valyl-aspartic acid amide) referred to as Z-DEVD-R110. This substrate is a bisamide derivative of rhodamine 110 (R110) containing DEVD peptides covalently linked to each of R110's amino groups. Upon enzymatic cleavage, the nonfluorescent bisamide substrate is converted to the fluorescent R110, which was quantified by a fluorescence microplate reader (Tecan) using excitation at 485±10 nm and emission at 535±10 nm. […] The AC-DEVD-inhibitor was used to confirm that the observed fluorescence signal in treated samples is due to the activity of caspase-3 protease. Both induced and control cells were then harvested and lysed. Enzyme reactions were performed in 96-well plates with 50 μg of cytosolic proteins (55 min. of incubation) and a final concentration of 25 μM Z-DEVD-R110 substrate, as described in the kit protocol.

Where [8] appears, read: Table 8A, C-26 cells, free ceramide dispersions, read-out: IC50 (μM), 4 hr.
The mark [9] stands for this setting: Table 8A, C-26 cells, read-out: IC50 (μM), 24 hr.
The mark [10] stands for this setting: Table 8A, C-26 cells, read-out: IC50 (μM), 72 hr.
Setting [11] is: Table 8B, read-out: IC50 (μM), 4 hr C-26.
[12] abbreviates: Table 8B, read-out: IC50 (μM), 24 hr C-26.
Where [13] appears, read: Table 8B, read-out: IC50 (μM), 72 hr C-26.
The mark [14] stands for this setting: read-out: IC50 (μM), 4 hr OV-1063.
Where [15] appears, read: read-out: IC50 (μM), 24 hr OV-1063.
Where [16] appears, read: read-out: IC50 (μM), 72 hr OV-1063.

Like-named read-outs stand apart in the source and are kept apart here.

In the case of `CCCCCCCCCCCCC/C=C/[C@@H](O)[C@H](CO)NC(C)=O` [C2Cer, N-Acetyl-D-erythro-sphingosine], in series [1], the “CAC (critical aggregation concentration)” value is listed as 10^−6M. The IC50 – broadly, the midpoint of a concentration-inhibition curve – in series [2] (setting [8]) is > 60 µM; in series [2] (setting [9]) it was > 30 µM; in series [2] (setting [10]), 20 ± 1 µM; in series [2] (setting [11]) it was > 60 µM; in series [2] (setting [12]), > 30 µM; in series [2] (setting [13]) it was 20 ± 1 µM. The half-inhibitory concentration (IC50) in series [3] (setting [14]) is > 80 µM; in series [3] (setting [15]) it was > 30 µM; in series [3] (setting [16]), 25 ± 1.9 µM. Also, the “decrease from initial weight” value in series [4] is “about 5%”. Moreover, the “Liposome formation (being a liposome forming lipid by itself)” value (shortened to “Liposome formation”) in series [5] was “No”.
As for `CCCCCCCCCCCCC/C=C/[C@@H](O)[C@H](CO)NC(=O)CCCCC` [C6Cer, N-hexanoyl-D-erythro-sphingosine], the IC50 in series [2] (setting [8]) worked out at 11 ± 5 µM; in series [2] (setting [9]) it was 4.1 ± 1.6 µM; in series [2] (setting [10]), 2.9 ± 1.2 µM; in series [2] (setting [11]), 11 ± 5 µM; in series [2] (setting [12]) it was 4.1 ± 1.6 µM; in series [2] (setting [13]) it was 2.9 ± 1.2 µM. The IC50 in series [3] (setting [14]) is 8 ± 0.1 µM; in series [3] (setting [15]) it was 4.5 ± 0.7 µM; in series [3] (setting [16]), 2.3 ± 1 µM. Moreover, in series [6] (cell derived medium (taken from C26 cells)), the “ceramide converted into C6 SPM” value came to 9%. For the same molecule, the metabolic activity entry in series [6] (fresh medium) is on record as “no metabolitic activity”. In addition, the death of mice result in series [4] (ethanol:dodecane (98:2) dispersions) was “died during the injection”. For the same molecule, in series [4], the “decrease from initial weight” value is listed as “about 5%”. In addition, in series [5], the “Liposome formation” value is listed as “No”.
For the molecule `CCCCCCCCCCCCC/C=C/[C@@H](O)[C@H](CO)NC(=O)CCCCCCCCCCCCCCC` [C16Cer, N-palmitoyl-D-erythro-sphingosine], the IC50 is > 100 µM in series [2] (setting [8]); > 100 µM in series [2] (setting [9]); 80 µM in series [2] (setting [10]); > 100 µM in series [2] (setting [11]); > 100 µM in series [2] (setting [12]); 80 µM in series [2] (setting [13]). The IC50 is > 100 µM in series [3] (setting [14]), > 100 µM in series [3] (setting [15]) and 90 µM in series [3] (setting [16]). Also, the “increase in caspase-3 activity vs control, untreated cells” value in series [7] is listed as “no activation”. In series [5], the “Liposome formation” value was “No”.
